The record followed here is patent publication US10538498B2, “1,3,4-oxadiazole sulfonamide derivative compounds as histone deacetylase 6 inhibitor, and the pharmaceutical composition comprising the same” (Chong Kun Dang Pharmaceutical Corp., priority 2015, dated 2020).

Structures are written as SMILES.

This test deals with T1, human recombinant HDAC6 (Homo sapiens, UniProt Q9UBN7).
T1 construct: purchased Calbiochem 382180
T1 sequence (Q9UBN7 1-1215): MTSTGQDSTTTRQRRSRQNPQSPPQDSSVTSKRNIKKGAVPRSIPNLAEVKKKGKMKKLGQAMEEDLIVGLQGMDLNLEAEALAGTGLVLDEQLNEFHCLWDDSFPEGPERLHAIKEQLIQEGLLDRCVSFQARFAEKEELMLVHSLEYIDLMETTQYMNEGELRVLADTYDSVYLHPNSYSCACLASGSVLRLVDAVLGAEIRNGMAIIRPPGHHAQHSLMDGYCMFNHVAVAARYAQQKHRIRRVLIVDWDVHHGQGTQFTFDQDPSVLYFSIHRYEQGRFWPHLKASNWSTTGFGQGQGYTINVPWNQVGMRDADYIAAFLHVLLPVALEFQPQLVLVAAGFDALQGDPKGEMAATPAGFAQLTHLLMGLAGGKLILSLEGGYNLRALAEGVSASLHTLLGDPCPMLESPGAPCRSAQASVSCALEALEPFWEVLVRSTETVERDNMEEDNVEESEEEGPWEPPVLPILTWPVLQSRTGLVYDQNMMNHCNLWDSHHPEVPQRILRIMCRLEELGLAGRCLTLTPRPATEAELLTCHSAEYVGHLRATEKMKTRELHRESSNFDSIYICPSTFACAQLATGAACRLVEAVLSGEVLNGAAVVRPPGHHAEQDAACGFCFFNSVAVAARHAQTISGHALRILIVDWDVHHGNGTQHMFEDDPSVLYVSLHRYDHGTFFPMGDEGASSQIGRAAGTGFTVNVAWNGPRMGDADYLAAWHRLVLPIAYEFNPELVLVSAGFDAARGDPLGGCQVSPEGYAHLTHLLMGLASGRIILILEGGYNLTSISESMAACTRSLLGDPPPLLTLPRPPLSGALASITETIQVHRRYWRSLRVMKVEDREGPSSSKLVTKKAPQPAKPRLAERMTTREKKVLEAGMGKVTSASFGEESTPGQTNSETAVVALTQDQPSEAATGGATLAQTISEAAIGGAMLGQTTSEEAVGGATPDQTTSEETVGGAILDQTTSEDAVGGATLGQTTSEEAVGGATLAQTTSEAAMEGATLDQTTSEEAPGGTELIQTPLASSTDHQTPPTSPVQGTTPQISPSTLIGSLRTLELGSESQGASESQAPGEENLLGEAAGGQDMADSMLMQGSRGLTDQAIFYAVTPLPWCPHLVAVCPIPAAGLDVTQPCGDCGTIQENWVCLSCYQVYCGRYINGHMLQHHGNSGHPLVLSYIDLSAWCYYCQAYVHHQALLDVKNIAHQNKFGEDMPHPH
In words: HDAC6 enzyme activity inhibition assay (HDAC Fluorimetric Drug Discovery Kit). Format: biochemical. The following applies: for HDAC6 selectivity (fold): HDAC1 vs HDAC6; for IC50: same protocol as the HDAC1 enzyme activity test. A digest of the protocol:
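Fluorescence (Ex 360, Em 460) after 30 min developer step; IC50 from dose-response. Reaction: 0.3 μg recombinant enzyme, 10 μM Fluor de Lys-SIRT1 substrate, 5-fold compound dilutions, 60 min at 30° C. Same protocol for both isoforms.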

As for `CS(=O)(=O)N(Cc1ccc(-c2nnc(C(F)F)o2)cc1)c1ncco1` [Compound 11741, N-(4-(5-(difluoromethyl)-1,3,4-oxadiazol-2-yl)benzyl)-N-(oxazol-2-yl)methanesulfonamide], the “HDAC6 selectivity (fold)” value is listed as 57 fold and the half-inhibitory concentration (IC50) came to 1740 nM.

Take `CC(C)n1ncc2ccc(N(Cc3ccc(-c4nnc(C(F)F)o4)cc3)S(C)(=O)=O)cc21` [Compound 11742, N-(4-(5-(difluoromethyl)-1,3,4-oxadiazol-2-yl)benzyl)-N-(1-isopropyl-1H-indazol-6-yl)methanesulfonamide]: the “HDAC6 selectivity (fold)” value amounted to 418 fold and the 50% inhibitory concentration (IC50) was determined as 239 nM.

Turning to `CCn1ncc2ccc(N(Cc3ccc(-c4nnc(C(F)F)o4)cc3)S(C)(=O)=O)cc21` [Compound 11743, N-(4-(5-(difluoromethyl)-1,3,4-oxadiazol-2-yl)benzyl)-N-(1-ethyl-1H-indazol-6-yl)methanesulfonamide], the “HDAC6 selectivity (fold)” value was determined as 1466 fold and the IC50 turned out to be 68.2 nM.

With `CC(C)c1nc2ccc(N(Cc3ccc(-c4nnc(C(F)F)o4)cc3)S(C)(=O)=O)cc2s1` [Compound 11744, N-(4-(5-(difluoromethyl)-1,3,4-oxadiazol-2-yl)benzyl)-N-(2-isopropylbenzo[d]thiazol-6-yl)methanesulfonamide], the “HDAC6 selectivity (fold)” value was 188 fold and the IC50 was determined as 531 nM.

With `Cn1c(=O)n(C)c2cc(N(Cc3ccc(-c4nnc(C(F)F)o4)cc3)S(C)(=O)=O)ccc21` [Compound 11745, N-(4-(5-(difluoromethyl)-1,3,4-oxadiazol-2-yl)benzyl)-N-(1,3-dimethyl-2-oxo-2,3-dihydro-1H-benzo[d]imidazol-5-yl) methanesulfonamide], the “HDAC6 selectivity (fold)” value was determined as 432 fold and the IC50 worked out at 231 nM.

`Cc1nn(C)c2ccc(N(Cc3ccc(-c4nnc(C(F)F)o4)cc3)S(C)(=O)=O)cc12` [Compound 11746, N-(4-(5-(difluoromethyl)-1,3,4-oxadiazol-2-yl)benzyl)-N-(1,3-dimethyl-1H-indazol-5-yl)methanesulfonamide]: the “HDAC6 selectivity (fold)” value is 784 fold and the half-inhibitory concentration (IC50) amounted to 127 nM.

For `CS(=O)(=O)N(Cc1ccc(-c2nnc(C(F)F)o2)cc1F)c1ccc2c(c1)CCC2` [Compound 11747, N-(4-(5-(difluoromethyl)-1,3,4-oxadiazol-2-yl)-2-fluorobenzyl)-N-(2,3-dihydro-1H-inden-5-yl)methanesulfonamide], the “HDAC6 selectivity (fold)” value came out at 1050 fold and the IC50 was found to be 95.2 nM.

Consider `CS(=O)(=O)N(Cc1ccc(-c2nnc(C(F)F)o2)cc1F)[C@@H]1CCc2ccccc21` [Compound 11748, (R)—N-(4-(5-(difluoromethyl)-1,3,4-oxadiazol-2-yl)-2-fluorobenzyl)-N-(2,3-dihydro-1H-inden-1-yl)methanesulfonamide], for which the “HDAC6 selectivity (fold)” value is on record as 230 fold and the IC50 was 433 nM.

On to `CS(=O)(=O)N(Cc1ccc(-c2nnc(C(F)F)o2)cc1F)[C@H]1CCc2ccccc21` [Compound 11749, (S)—N-(4-(5-(difluoromethyl)-1,3,4-oxadiazol-2-yl)-2-fluorobenzyl)-N-(2,3-dihydro-1H-inden-1-yl)methanesulfonamide], for which the “HDAC6 selectivity (fold)” value is 255 fold and the half-inhibitory concentration (IC50) came to 391 nM.

With `CN1CCc2nc(N(Cc3ccc(-c4nnc(C(F)F)o4)cc3)S(C)(=O)=O)sc2C1` [Compound 11750, N-(4-(5-(difluoromethyl)-1,3,4-oxadiazol-2-yl)benzyl)-N-(5-methyl-4,5,6,7-tetrahydrothiazolo[5,4-c]pyridin-2-yl)methanesulfonamide], the “HDAC6 selectivity (fold)” value turned out to be 77 fold and the IC50 is 1290 nM.

Regarding `O=C(CN1CCN(CCS(=O)(=O)N(Cc2ccc(-c3nnc(C(F)F)o3)cc2)c2ccccc2)CC1)N1CCOCC1` [Compound 11751, N-(4-(5-(difluoromethyl)-1,3,4-oxadiazol-2-yl)benzyl)-2-(4-(2-morpholino-2-oxoethyl)piperazin-1-yl)-N-phenylethane-1-sulfonamide], the “HDAC6 selectivity (fold)” value came to 1170 fold and the IC50 was found to be 85.4 nM.

With `O=S(=O)(CCN1CCCOCC1)N(Cc1ccc(-c2nnc(C(F)F)o2)cc1)c1ccccc1` [Compound 11752, N-(4-(5-(difluoromethyl)-1,3,4-oxadiazol-2-yl)benzyl)-2-(1,4-oxazepan-4-yl)-N-phenylethane-1-sulfonamide], the “HDAC6 selectivity (fold)” value is listed as 868 fold and the IC50 is 115 nM.

Regarding `O=S(=O)(CCN1CC[C@@H](F)C1)N(Cc1ccc(-c2nnc(C(F)F)o2)cc1)c1ccccc1` [Compound 11753, (R)—N-(4-(5-(difluoromethyl)-1,3,4-oxadiazol-2-yl)benzyl)-2-(3-fluoropyrrolidin-1-yl)-N-phenylethane-1-sulfonamide], the “HDAC6 selectivity (fold)” value was 953 fold and the IC50 was determined as 105 nM.

For `CN(C)[C@@H]1CCN(CCS(=O)(=O)N(Cc2ccc(-c3nnc(C(F)F)o3)cc2)c2ccccc2)C1` [Compound 11754, (R)—N-(4-(5-(difluoromethyl)-1,3,4-oxadiazol-2-yl)benzyl)-2-(3-(dimethylamino)pyrrolidin-1-yl)-N-phenylethane-1-sulfonamide], the “HDAC6 selectivity (fold)” value is 1420 fold and the half-inhibitory concentration (IC50) turned out to be 70.4 nM.

As for `CN(C)[C@H]1CCN(CCS(=O)(=O)N(Cc2ccc(-c3nnc(C(F)F)o3)cc2)c2ccccc2)C1` [Compound 11755, (S)—N-(4-(5-(difluoromethyl)-1,3,4-oxadiazol-2-yl)benzyl)-2-(3-(dimethylamino)pyrrolidin-1-yl)-N-phenylethane-1-sulfonamide], the “HDAC6 selectivity (fold)” value is reported as 1377 fold and the concentration for half-maximal inhibition (IC50) worked out at 72.6 nM.

As for `O=S(=O)(CCN1Cc2ccccc2C1)N(Cc1ccc(-c2nnc(C(F)F)o2)cc1)c1ccccc1` [Compound 11756, N-(4-(5-(difluoromethyl)-1,3,4-oxadiazol-2-yl)benzyl)-2-(isoindolin-2-yl)-N-phenylethane-1-sulfonamide], the “HDAC6 selectivity (fold)” value is 264 fold and the IC50 is 378 nM.

With `CCN1CCN(CCS(=O)(=O)N(Cc2ccc(-c3nnc(C(F)F)o3)cc2)c2ccccc2)CC1` [Compound 11757, N-(4-(5-(difluoromethyl)-1,3,4-oxadiazol-2-yl)benzyl)-2-(4-ethylpiperazin-1-yl)-N-phenylethane-1-sulfonamide], the “HDAC6 selectivity (fold)” value stood at 1447 fold and the half-inhibitory concentration (IC50) was 69.1 nM.

`COCCN1CCN(CCS(=O)(=O)N(Cc2ccc(-c3nnc(C(F)F)o3)cc2)c2ccccc2)CC1` [Compound 11758, N-(4-(5-(difluoromethyl)-1,3,4-oxadiazol-2-yl)benzyl)-2-(4-(2-methoxyethyl)piperazin-1-yl)-N-phenylethane-1-sulfonamide]: the “HDAC6 selectivity (fold)” value is reported as 1039 fold and the 50% inhibitory concentration (IC50) turned out to be 96.2 nM.

Turning to `CC(=O)N1CCCN(CCS(=O)(=O)N(Cc2ccc(-c3nnc(C(F)F)o3)cc2)c2ccccc2)CC1` [Compound 11759, 2-(4-acetyl-1,4-diazepan-1-yl)-N-(4-(5-(difluoromethyl)-1,3,4-oxadiazol-2-yl)benzyl)-N-phenylethane-1-sulfonamide], the “HDAC6 selectivity (fold)” value is 984 fold and the IC50 stood at 102 nM.

`O=S(=O)(CCN1CCCN(Cc2ccccc2)CC1)N(Cc1ccc(-c2nnc(C(F)F)o2)cc1)c1ccccc1` [Compound 11760, 2-(4-benzyl-1,4-diazepan-1-yl)-N-(4-(5-(difluoromethyl)-1,3,4-oxadiazol-2-yl)benzyl)-N-phenylethane-1-sulfonamide]: the “HDAC6 selectivity (fold)” value was 508 fold and the IC50 amounted to 197 nM.

As for `O=C(C1CC1)N1CCN(CCS(=O)(=O)N(Cc2ccc(-c3nnc(C(F)F)o3)cc2)c2ccccc2)CC1` [Compound 11761, 2-(4-(cyclopropanecarbonyl)piperazin-1-yl)-N-(4-(5-(difluoromethyl)-1,3,4-oxadiazol-2-yl)benzyl)-N-phenylethane-1-sulfonamide], the “HDAC6 selectivity (fold)” value is listed as 976 fold and the IC50 came out at 102 nM.

The IC50 is the concentration that inhibits the measured activity by half.
